Test results published in ChEMBL document CHEMBL3632488, “Discovery of potent and selective cytotoxic activity of new quinazoline-ureas against TMZ-resistant glioblastoma multiforme (GBM)” (Eur J Med Chem, 2015).
Activity calls are given as the source filed them. The rule behind the calls is not given here.

Tests used:
[1] = Antiproliferative activity against human GBM1 cells assessed as reduction in cell viability at 10 uM incubated for 72 hrs by WST-1 method; type: functional; settings: GBM1, 72 h
[2] = Antiproliferative activity against human GBM2 cells assessed as reduction in cell viability at 10 uM incubated for 72 hrs by WST-1 method; type: functional; settings: GBM2, 72 h
[3] = Antiproliferative activity against human GBM1 cells assessed as reduction in cell viability incubated for 72 hrs by WST-1 method; type: functional, cell-based; settings: GBM1, 72 h
[4] = Antiproliferative activity against human GBM2 cells assessed as reduction in cell viability incubated for 72 hrs by WST-1 method; type: functional, cell-based; settings: GBM2, 72 h
[5] = Cytotoxicity against normal human astrocytes assessed as cell viability incubated for 72 hrs by WST-1 method; type: cell-based; settings: Astrocyte
[6] = Selectivity index, ratio of IC50 for normal human astrocytes to IC50 for human GBM1 cells
[7] = Selectivity index, ratio of IC50 for normal human astrocytes to IC50 for human GBM2 cells
[8] = Antiproliferative activity against human GBM3 cells assessed as reduction in cell viability at 10 uM incubated for 72 hrs by WST-1 method; type: functional; settings: GBM3, 72 h
[9] = Antiproliferative activity against human GBM3 cells assessed as reduction in cell viability incubated for 72 hrs by WST-1 method; type: functional, cell-based; settings: GBM3, 72 h
[10] = Selectivity index, ratio of IC50 for normal human astrocytes to IC50 for human GBM3 cells
[11] = system: GBM1; assay: Induction of apoptosis in human GBM1 cells assessed as loss of mitochondrial membrane potential at 10 uM after 2 hrs by JC-1 staining based fluorescence microscopy; type: functional, cell-based
[12] = molecular target: Translocator protein (Rattus norvegicus) (UniProt P16257); assay: Displacement of [3H]PK11195 from TSPO receptor in Sprague-Dawley rat cerebral cortex membrane at 10 uM by radiometric competitive assay; type: tissue-based
[13] = molecular target: Translocator protein (Rattus norvegicus) (UniProt P16257); assay: Displacement of [3H]PK11195 from TSPO receptor in Sprague-Dawley rat cerebral cortex membrane at 1 uM by radiometric competitive assay; type: tissue-based
[14] = molecular target: Translocator protein (Rattus norvegicus) (UniProt P16257); assay: Displacement of [3H]PK11195 from TSPO receptor in Sprague-Dawley rat cerebral cortex membrane at 100 nM by radiometric competitive assay; type: tissue-based
[15] = molecular target: Translocator protein (Rattus norvegicus) (UniProt P16257); assay: Displacement of [3H]PK11195 from TSPO receptor in Sprague-Dawley rat cerebral cortex membrane at 10 nM by radiometric competitive assay; type: tissue-based
[16] = molecular target: Translocator protein (Rattus norvegicus) (UniProt P16257); assay: Displacement of [3H]PK11195 from TSPO receptor in Sprague-Dawley rat cerebral cortex membrane at 1 nM by radiometric competitive assay; type: tissue-based
[17] = molecular target: Translocator protein (Rattus norvegicus, UniProt P16257); assay: Displacement of [3H]PK11195 from TSPO receptor in Sprague-Dawley rat cerebral cortex membrane by radiometric competitive assay; type: tissue-based

SMILES	inhibition at 10 µM [1]	inhibition at 10 µM [2]	IC50 [3]	IC50 [4]	IC50 [5]	Ratio IC50 [6]	Ratio IC50 [7]	inhibition at 10 µM [8]	IC50 [9]	Ratio IC50 [10]	Activity [11]	inhibition [12]	inhibition [13]	inhibition [14]	inhibition [15]	inhibition [16]	IC50 [17]
O=C(Nc1ccc(C(F)(F)F)cc1)Nc1cc2ncncc2cc1OCc1ccccc1	92.2%	95.2%	5.7 µM	8.6 µM	9.2 µM	1.5	1.5	99.1%	3.7 µM	1.5	–	–	–	–	–	–	–
O=C(Nc1cccc(F)c1)Nc1cc2ncncc2cc1OCc1ccccc1Cl	97.7%	102%	4 µM	3.2 µM	9.4 µM	2.9	2.9	102%	2.4 µM	2.9	–	–	–	–	–	–	–
O=C(Nc1cc2ncncc2cc1OCc1ccc(F)cc1)Nc1cccc2ccccc12	99.3%	99%	8.1 µM	4.5 µM	8.5 µM	1.2	1.2	94.4%	8.3 µM	1.2	–	–	–	–	–	–	–
O=C(Nc1cccc(Cl)c1)Nc1cc2ncncc2cc1OCc1cccc(Cl)c1	85%	98.2%	3.3 µM	3.5 µM	> 10 µM	>2.9	>2.9	100%	3.5 µM	>2.9	–	–	–	–	–	–	–
O=C(Nc1ccccc1F)Nc1cc2ncncc2cc1OCc1ccccc1F	80.7%	92.4%	4.2 µM	3.6 µM	10 µM	2.6	2.6	94.6%	3.8 µM	2.6	–	–	–	–	–	–	–
CC[C@@]1(O)C(=O)OCc2c1cc1n(c2=O)Cc2cc3c(CN(C)C)c(O)ccc3nc2-1 [TOPOTECAN]	88.7%	97.8%	0.46 µM	0.13 µM	0.16 µM	0.5	0.5	88.7%	0.38 µM	0.5	–	–	–	–	–	–	–
O=C(Nc1ccc(Cl)c(Cl)c1)Nc1cc2ncncc2cc1OCc1ccccc1Cl	87.5%	98.9%	1.8 µM	1.3 µM	> 10 µM	>7	>7	104%	1.2 µM	>7	Active	84%	57%	37%	19%	1%	0.447 µM
N#CC(C#N)=NNc1cccc(Cl)c1	–	–	–	–	–	–	–	–	–	–	Active	–	–	–	–	–	–
O=C(Nc1ccccc1F)Nc1cc2ncncc2cc1OCc1ccccc1	72%	83.7%	6.1 µM	4.5 µM	> 10 µM	>1.8	>1.8	75.5%	5.9 µM	>1.8	–	–	–	–	–	–	–
CC/C(=C(\c1ccccc1)c1ccc(OCCN(C)C)cc1)c1ccccc1 [TAMOXIFEN]	98.4%	101%	7.5 µM	3.5 µM	> 10 µM	>2.1	>2.1	95.7%	4.7 µM	>2.1	–	–	–	–	–	–	–
O=C(Nc1cccc(Cl)c1)Nc1cc2ncncc2cc1OCc1ccccc1	79.1%	97.3%	5.7 µM	4.1 µM	7.4 µM	1.4	1.4	74.8%	6.4 µM	1.4	–	–	–	–	–	–	–
CN1C(=O)CN=C(c2ccccc2)c2cc(Cl)ccc21	–	–	–	–	–	–	–	–	–	–	–	97%	85%	34%	2%	0%	–
